A melting point compilation (Tetko et al.; mined from patent text by program, amines drawn as free bases though some values may be those of a salt)

| Structure (SMILES) | melting point |
| --- | --- |
| CN(C)C1(Cc2ccccc2)CCC(O)(c2cc3ccccc3s2)CC1 (stereo not drawn) | 128 to 131 °C |
| COc1cccc(NC(=O)N[C@H]2C[C@@](N)(C(=O)O)[C@@H]3[C@@H](C(=O)O)[C@@H]32)c1 (relative stereo) | > 250 °C |
| CCOC(=O)CC(=O)COCC1=C(C(=O)OCC)C(c2ccccc2Cl)C(C(=O)OC)=C(C)N1 (stereo not drawn) | 88 to 89 °C |
| CC(C)(C)C(=O)Nc1onc2c1CCC2 | 113 °C |
| CSCC12CCC(=CF)C=C1CCC1C3CCC(=O)C3(C)CCC12 (stereo not drawn) | 146 to 147 °C |
| Cc1cc(O)c(SCc2ccc(Cl)cc2Cl)c(=O)o1 | 163 to 164 °C |
| Fc1cccc2c1CNC2 | 46.5 to 48.5 °C |
| CCn1c(N(C)C)nc2cc(C(F)(F)F)c(Cl)c([N+](=O)[O-])c21 | 121 to 122 °C |
| Nc1sc2c(c1C(=O)c1ccc(Cl)cc1)CCNC2 | 164 to 166 °C |
| O=S(=O)(c1nc[nH]n1)c1ccc(C(F)(F)F)cc1Cl | 222 to 224 °C |
| CN(C)C=C(C=O)OCCO | 148 to 150 °C |
| Cc1cccc2ncc(C(=O)NC(C)(C)C)c(=O)n12 | 164 to 166 °C |
| Oc1ccc2c(c1)C(C(Cl)(Cl)Cl)OC(C(Cl)(Cl)Cl)O2 (stereo not drawn) | 167 to 169 °C |
| CCN(CC)CCNC(=O)c1cc(Cl)c(N)cc1OCCC(C)O (stereo not drawn) | 136 to 138 °C |
| COC(=O)c1c(SC)nn(C2CCCC2)c1N | 88 to 89 °C |
| IC(I)=C(I)Cn1nnc(-c2ccccc2)n1 | 188 °C |
| NC(=O)c1cc2n(c1)CCc1ccccc1C2=O | 228 °C |
| O=C(O)c1cccc(NCc2cccs2)c1C(=O)O | 223 to 225 °C |
| CC(C)(C(=O)Nc1ccc(Cl)cc1)/C(F)=C/Br | 131 to 133 °C |
| CC(C)N=C(NC(C)C)ON1C(C)(C)CC(O)CC1(C)C | 118 to 123 °C |
| O=C1c2cccc(O)c2NC(O)C2CCCN12 (stereo not drawn) | 155 to 157 °C |
| O=C(NCC1COCCO1)C1CCCN(c2cccc3c2C(=O)N(Cc2ccncc2)C3=O)C1 (stereo not drawn) | 186 to 187 °C |
| CC(O)=C(C#N)C(=O)Nc1cccc(S(C)(=O)=O)c1 | 213 to 214 °C |
| C=CCCC(C#N)(C#N)Cc1ccc(OC(F)(F)C(F)F)cc1 | 60.5 °C |

| Structure (SMILES) | melting point |
| --- | --- |
| N=C(N)Nc1nc(-c2cccc([N+](=O)[O-])c2)no1 | 290 to 291 °C |
| COc1cc2c(cc1OC)C(C)CC(N)C(=O)N2 (stereo not drawn) | 103 °C |
| CSc1sc(C(=O)N2CCOCC2)c2c1-c1oncc1C(C)(C)C2 | 175 to 177 °C |
| Cc1cc(C2=NOC(c3cc(Cl)cc(Cl)c3)(C(F)(F)F)C2)ccc1F (stereo not drawn) | 72 to 74 °C |
| O=C(OCCl)c1c(Cl)cccc1Cl | 70 to 72 °C |
| CCOC(=O)CSc1nnc(-c2ccc3c(c2)CCO3)o1 | 92 to 93 °C |
| Cc1cc(Br)cnc1CCCCNC1=NS(=O)N=C1N (stereo not drawn) | 188 to 190 °C |
| CS(=O)c1ccc(S(=O)(=O)N2CCCC2=O)cc1 (stereo not drawn) | 127 to 129 °C |
| O=C1NCC(c2ccccc2)CCC1Br (stereo not drawn) | 218 to 220 °C |
| O=c1[nH]c2ncc(-c3cccnc3)nc2n1CC1CCCCC1 | 205 °C |
| CC(C)(C)[Si](C)(C)O[C@@H]1c2sccc2[C@]2(O[Si](C)(C)C(C)(C)C)C[C@H]1OC2=O | 133 to 137 °C |
| Nc1ncc2ncn(CCO)c2n1 | 173 to 175 °C |
| CCOC(=O)C1=C(C)NC(=O)N(C(=O)CC)C1c1cccc([N+](=O)[O-])c1 (stereo not drawn) | 152 to 154 °C |
| Oc1cccc(Cc2n[nH]c3ccccc23)c1 | 170 to 172 °C |
| COc1ccc2c(c1)Sc1ccc(Cl)cc1C(O)C2 (stereo not drawn) | 100 to 102 °C |
| CN(CCCNC(=O)c1ccccc1)CCCc1c[nH]c2ccccc12 | 73 to 74 °C |
| C=CCNC1=NS(=O)(=O)c2sc(Cl)cc2N1 | 217 to 221 °C |
| O=C1NCCN(c2ccc(OC(F)(F)C(F)F)cc2)C1=O | 240 to 242 °C |
| CC(=O)NNCc1c[nH]c(=S)n1[C@H]1CCc2c(F)cc(F)cc2C1 | 144 to 153 °C |
| CC(C)(C#N)c1ccc(C(=O)c2cccs2)cc1 | 139 °C |
| Cc1oc(C=Cc2ccccc2)nc1CCl | 108 to 109 °C |
| C[C@H]1CCCC(C)(C)[C@@H]1[C@H](O)c1ccc(OC(F)(F)F)c(F)c1 | 60.3 to 62.2 °C |
| CN(CC1CO1)S(=O)(=O)C(F)(F)C(F)(F)C(F)(F)C(F)(F)S(=O)(=O)N(C)CC1CO1 (stereo not drawn) | 77 to 79 °C |
| Cc1c(NC(=O)c2ccc(OCC3CC3)cc2)ccc2cc(CNCC3CCOCC3)[nH]c12 | 167 to 168 °C |

Next, values leading:

| melting point | Structure (SMILES) |
| --- | --- |
| 63.6 °C | COc1ccc2cc(CC(C(C)=O)C(=O)OC(C)(C)C)ccc2c1 (stereo not drawn) |
| 200 to 202 °C | O=C1NC(Cc2ccc(OCc3ccccc3)cn2)C(=O)NC1Cc1ccc(OCc2ccccc2)cc1 (stereo not drawn) |
| 230 to 232 °C | COc1ccc(Cc2n[nH]c3c2c(=O)n(-c2ccccc2)c2ncccc32)cc1OC |
| 221 °C | CCc1noc(-c2ncn3c2c(=O)n(CC)c2ncccc23)n1 |
| 276 to 279 °C | CN1CCN(c2ccc(Nc3ncc4c(n3)S/C(=C/c3ccc([N+](=O)[O-])cc3)C(=O)N4)cc2)CC1 |
| 160 to 162 °C | CC(C)(CNc1ccc(C2=NNC(=O)CC2)cc1)NCC(O)COc1cc(Cl)ccc1C#N (stereo not drawn) |
| 86 to 88 °C | CCOC(=O)C1=C(C)N=C(SCc2ccc(OC)cc2)N(S(=O)(=O)c2ccccc2)C1c1cccc([N+](=O)[O-])c1 (stereo not drawn) |
| 187 to 188 °C | O=C(NCCO)c1cccc(-c2cccc3nn(Cc4cccc(F)c4)cc23)c1 |
| 240 to 250 °C | O=C(Nc1ccccc1)N(CCCn1ccnc1)C1=Nc2cccc3cccc1c23 |
| 100 to 105 °C | CCN1C(=O)C(C)(C)C(=O)N(C)c2cc(OCCCN3C(=O)C(c4ccccc4)Cc4ccccc43)ccc21 (stereo not drawn) |
| 242 to 245 °C | Cc1oc2c(C)c(C)c(NC(=O)c3ccc(F)cc3)c(C)c2c1-c1ccc(C(C)C)cc1 |
| 148 to 149 °C | CCOC(=O)c1ccc(-n2nc(-c3ccccc3O)nc2-c2ccccc2O)cc1 |
| 101 to 103 °C | NCCNC(=O)Nc1ccccc1C(=O)NCC1CCN(C(c2ccccc2)c2ccccc2)CC1 |
| 135 to 137 °C | CCOC(=O)CCNC(=O)c1[nH]c(C)c(-c2nc3ccc(C(=O)c4ccccc4)cc3[nH]2)c1C |
| 275 to 278 °C | NC(=O)c1cc2c(-c3cccc(NC(=O)c4cccc(C(F)(F)F)c4)c3)ncnc2s1 |
| 100 °C | C[Si](C)(C)C1=C(c2ccccc2)C(c2ccccc2)=C([Si](C)(C)C)[Si]1(C)C |
| 188 to 189 °C | CCc1noc(NC(=O)N2CCN(c3ccnc(-c4cccc(F)c4F)n3)CC2)c1C |
| 209 to 211 °C | COC(=O)c1sc2c(c1N=C1CCCN1C)c1ccccc1c(=O)n2-c1ccccc1C |
| 127 °C | O=C(O)CCC(O)c1ccc(-c2ccc(Br)cc2)cc1 (stereo not drawn) |
| 102 °C | COc1cc(F)ccc1-c1ccc(S(=O)(=O)N2c3ccccc3CC2C(=O)NCCOc2ccc(C(=O)O)cc2)cc1 (stereo not drawn) |
| 159 to 162 °C | CCOC(=O)C=Cc1ccc2c(c1)c(-c1cc3cccnc3n1S(=O)(=O)c1ccc(C)cc1)cn2C |
| 189 to 190 °C | O=C(NCc1ccc(Cl)cc1)c1cnc2cc(C(F)(F)F)ccc2c1O |
| 281 to 284 °C | COc1ccc(-c2ccc(C(=O)O)cc2)c2c1OCCO2 |
| 100 to 103 °C | COc1cccc(CCC(c2ccccc2)C(O)c2ccc(O)cc2)c1 (stereo not drawn) |
| 145 to 148 °C | COc1cccc2oc(Cn3nc(-c4ccc(OC(C)C)c(F)c4)c4c(N)ncnc43)c(-c3cccc(F)c3)c(=O)c12 |

| melting point | Structure (SMILES) |
| --- | --- |
| 88 to 96 °C | COc1cc(C2CCN(CCO)CC2O)ccc1Nc1ncc2ccc(-c3ccccc3OC)n2n1 (stereo not drawn) |
| 81 °C | COC(=O)c1cc(C(=O)c2c(C)c(-c3cccc(OCC(=O)OC(C)(C)C)c3)c3ccccn23)ccc1N |
| 111 to 113 °C | COC1=C(OC)C(=Nc2ccc(Cl)c(Cl)c2)N(C)C1=O |
| 126 to 128 °C | CCOC(=O)C(C)c1cnc(Cl)c2cc(OC)ccc12 (stereo not drawn) |
| > 300 °C | O=c1cc(-c2ccc(F)cc2)c2c([nH]1)C1CCC(C2)C1 (stereo not drawn) |
| 150 to 152 °C | CCOC(=O)C1=C(C)NC(=S)N(C(=O)OC(C)C)C1c1cccc([N+](=O)[O-])c1 (stereo not drawn) |
| 158 to 160 °C | NC(=O)n1ccc(-c2ccc(Oc3ccc(N)cc3)cc2)n1 |
| 100 °C | COC(=O)C1Oc2ccc(Oc3ccc(Cl)cc3)cc2C(C)(c2ccccc2)O1 (stereo not drawn) |
| 168 to 170 °C | COc1ccc(-c2ccc(O)cc2C=O)cc1Cl |
| 154 to 156 °C | CCN1c2ncc(Br)cc2C(=O)N(C)c2ccc(F)nc21 |
| 143 to 145 °C | CCOC(=O)c1cnc2ccc(OCC)nc2c1Nc1ccc(OCC(O)CO)cc1 (stereo not drawn) |
| 265 to 267 °C | NC(=O)c1ccnc(NC(=O)N2CCC3(CCc4cc(F)ccc4O3)CC2)c1 |
| 288 to 289 °C | CCN1Cc2ccc(Cl)cc2-c2c(C(=O)N3CCOCC3)cc(-c3ccccc3)c(=O)n21 |
| 145 to 146 °C | Cn1cc(-c2cccc(F)c2)c(=O)c(-c2cccc(Cl)c2)c1 |
| 160 to 161 °C | CC(C)OC(=O)c1ccc(Nc2cccc(N3CCCCC3)c2)c([N+](=O)[O-])c1 |
| 108 to 109 °C | CN(C)CC1Cc2ccccc2N(S(=O)(=O)CCc2ccc(-c3ccccc3)cc2)C1 (stereo not drawn) |
| 118 to 120 °C | C=C(c1cc(F)ccc1OCc1ccc(Cl)cc1Cl)n1ccnc1 |
| 262 °C | Cc1cccc(-c2[nH]nc(N3CCN(C)CC3)c2-c2ccncc2)c1 |
| 241 to 243 °C | Cn1cc2c(O)cc(-c3ccccc3)nc2n1 |
| 140 to 143 °C | Oc1ccc(-c2ccc(CCC(O)CCc3cccnc3)cc2)cc1 (stereo not drawn) |
| 128 to 129 °C | Cc1ccc(O)c2c1N(Cc1ccccc1)C(=O)C2(C)C |
| 105 °C | CC(=O)Nc1ccc2ccccc2c1-c1c(P(c2ccccc2)c2ccccc2)ccc2ccccc12 |
| 216 to 217 °C | CCCCN(CCCCO)c1ccc(C=Cc2ccc(C=CC3=C(C#N)C(=C(C#N)C#N)OC3(C)C)s2)c(OCc2ccccc2)c1 |
| 94 to 96 °C | CCCCOc1ccc(C(=O)O)c(OC)c1 |
| 118 to 120 °C | COC(=O)C(Oc1nc(OC)cc(OC)n1)C(C)(N=[N+]=[N-])c1ccccc1 (stereo not drawn) |
